In patent US11084829B2, “Ubiquitin-specific-processing protease 7 (USP7) modulators and uses thereof” (RAPT THERAPEUTICS, INC., priority 2018, dated 2021):
Where two headings read alike, the source gives them in different places.

Legend:
[1] = test system: phosphorylated S6 (Ser235/236); test: Phospho-S6 ELISA; assay type: cell-based; details: treatment with the compound alone
Description: (§1) For Western blotting, compound-treated cells were lysed in RIPA lysis buffer (ThermoScientific) containing Halt Protease and Phosphatase Inhibitor Cocktail (Life Technologies). Lysates were quantified using the BCA protein assay (Pierce) and equivalent protein was separated by SDS-PAGE (4-12%, ThermoScientific). Following electrophoresis, proteins were transferred to PVDF membranes. […] Caspase activation assays were performed on compound-treated cells using the Caspase-Glo 3/7 Assay Kit (Promega) according to the manufacturer's protocol, and luminescence was measured using a CLARIOstar plate reader (BMG LABTECH). […] Data were collected using FACSCanto (Becton Dickinson) and Attune (Thermo Fisher Scientific) flow cytometers and analyzed with FlowJo software (FlowJo LLC). […] Lysates were quantified using the BCA protein assay (Pierce) and equivalent protein was used in the PathScan Phospho-S6 Ribosomal Protein (Ser235/236) Sandwich ELISA Kit (Cell Signaling) according to the manufacturer's protocol. Absorbance was measured using the Spectramax 300 plate reader (Molecular Devices). […]

H526 cells [2] = test: RNASeq transcriptomic profiling and gene set enrichment in H526 cells; assay type: cell-based; details: treatment for 24 or 48 hours
Description: RNA was extracted from approximately 1 million cells using the Allprep DNA/RNA Mini Kit (Qiagen). Whole transcriptome non-stranded libraries were prepared using the TruSeq RNA Library Prep Kit v2 (Illumina). Sequencing was performed on Illumina NovaSeq using paired-end mode, 200 cycles, targeting 40 million reads per sample, by MedGenome. Sequencing results were processed on the Seven Bridges Genomics platform through Kallisto Quant (version 0.43.1) aligning to the gencode.v27 transcript reference. Aligned reads were imported by tximport (version 1.10.1) and Treatment fold change and significance were calculated with DESeq2 (version 1.22.2) with an experimental design of “˜Time+Treatment+Time: Treatment” on genes with at least 10 counts. Shrunk log 2 fold changes (lfcShrink function, type=“apeglm”) were used for significance calculation.
In order to identify pathways impacted by USP7 inhibition, RNASeq was used to profile transcriptomic changes in H526 cells following treatment with the USP7 inhibitor 3-((7-(5-chloro-3-methyl-2-(((R)-morpholin-2-yl)methyl)phenyl)thieno[3,2-b]pyridin-2-yl)methyl)-6,6-dimethyl-3-azabicyclo[3.1.0]hexane-2,4-dione for 24 or 48 hours. […] Measurement of transcriptional changes prior to 72 hours should thus uncover programs triggered by USP7 inhibition without being confounded by apoptosis pathways themselves. […]

H526 cells [3] = test: Apoptosis (caspase-3/7 induction, sub-G1 population) in H526 cells; assay type: cell-based; details: starting 72 hours post treatment, data not shown
Description: as §1

H526 cells [4] = test: Compound synergy (Bliss independence) in H526 cells; assay type: cell-based
Description: (§2) CHP-134 was purchased from Sigma Aldrich, MOLM-13 was purchased from AddexBio, and NB-1 was purchased from Sekisui XenoTech. All other cell lines were purchased from American Type Culture Collection. For all cell lines, identity was confirmed by short tandem repeat profiling and culturing was performed in recommended growth medium. For studies evaluating cellular effects of compound treatment, 250 to 2,000 cells in 40 μl of recommended medium were seeded per well in 384-well plates (Corning 3764). DMSO-solubilized compounds were added in duplicate in a two-fold dilution series using a D300e Digital Dispenser (Hewlett-Packard). Following a 5-day incubation, cell viability was measured using CellTiter-Glo (Promega) following the manufacturer's instructions. Luminescence was measured using a CLARIOstar plate reader (BMG LABTECH) and normalized to that of DMSO-treated cells. IC50 values were determined by non-linear regression using a 4-parameter fit in Prism (GraphPad Software). Inhibitor profiling of the 430-cell line panel was conducted and analyzed similarly.
Cancer Cell Line Encyclopedia (CCLE) mutation data was downloaded from https://data.broadinstitute.org/ccleiCCLE_DepMap_18Q2_maf_20180502.txt.gz. Genes were considered mutated if they were annotated in CCLE as containing variants that were either a TCGA Hotspot, a COSMIC Hotspot, or a deleterious variant. Genes with at least 6 mutated cell lines out of the 397 cell lines that overlapped with the cell line screening panel were tested one gene at a time in linear models or coordinately in multivariate models where the fraction cell signal at 1 μM compound was the dependent variable. For compound synergy analysis, a Bliss-independence model was used. Briefly, the products of the fraction of maximal cell signal for each of the tested compounds alone were calculated as the expected signal in the absence of any compound interaction. The log2 of the ratio of expected:observed signal was calculated to indicate synergy (positive) or interference (negative) interactions. For in vivo studies, interval-censored survival analysis was performed using the icenReg package (reference: https://cran.r-project.org/web/packages/icenReg/citation.html), using the “ic_par” parametric regression model with proportional hazards and a Weibull distribution.
Tests were conducted to determine whether the USP7 inhibitor 3-((7-(5-chloro-3-methyl-2-(((R)-morpholin-2-yl)methyl)phenyl)thieno[3,2-b]pyridin-2-yl)methyl)-6,6-dimethyl-3-azabicyclo[3.1.0]hexane-2,4-dione potentiates the activity of DNA-damaging agents commonly used for small cell lung cancer chemotherapy, namely carboplatin, doxorubicin, and the PARP inhibitor olaparib.
The effect of combining the USP7 inhibitor 3-((7-(5-chloro-3-methyl-2-(((R)-morpholin-2-yl)methyl)phenyl)thieno[3,2-b]pyridin-2-yl)methyl)-6,6-dimethyl-3-azabicyclo[3.1.0]hexane-2,4-dione with the PIM kinase inhibitor AZD 1208, the PI3K inhibitor pictilisib and the PI3K inhibitor taselisib in the p53 mutant H526 cell line was tested. […] Both PIM and PI3K promote the activity of mammalian target of rapamycin (mTOR), which regulates cellular protein translation and controls phosphorylation of S6 at the Ser235/236 site.

[5] = test system: phosphorylated histone H2AX (γ-H2AX); test: γ-H2AX measurement (flow cytometry); assay type: cell-based
Description: as §1

[6] = Tolerability in tumor-free mice (preliminary to H526 study); assay type: in vivo; details: preliminary testing, oral 50 mg/kg twice daily or 100 mg/kg daily
M07e = test: Cell viability (CellTiter-Glo), M07e; assay type: cell-based; details: M-07e, AML, p53 wild-type
Description: as §2
(§3) USP7 inhibition by the compounds of Examples 31 and 124 reduced the viability of several p53-wild type blood cancer cell lines, including M07e, OCI-AML5 and MOLM13, in vitro as shown in the following Table 3. Idasanutlin was used as a positive control, and as expected these cell lines were also sensitive to this compound.

H526 xenograft = H526 xenograft model in athymic nude mice; assay type: in vivo
Description: MM. 1S and H526 xenograft studies were conducted according to the guidelines approved by the Applicant's Institutional Animal Care and Use Committee (IACUC). MM.1S cells were inoculated in PBS into irradiated NOD/SCID mice, while H526 cells were inoculated in PBS/Matrigel (Corning) into Nu/Nu mice (Jackson Laboratories). Mice were randomized into groups when mean tumor size reached 150 mm^3 (MM.1S) or 50-100 mm^3 (H526), respectively, and drug administration by oral gavage was started on day of randomization. Tumor volumes and body weights were subsequently measured twice per week. Tumor volumes were calculated using the formula: V=0.5(A×B^2), where A and B are the long and short diameters of the tumor, respectively.
(§4) The effect of pharmacological inhibition of USP7 on the viability of the p53 mutant small cell lung cancer cell line, H526 was further evaluated. […] In contrast, idasanutlin, whose inhibitory effect is dependent on a functional p53 pathway, had no effect.

LA-N-2 = test: Cell viability (CellTiter-Glo), LA-N-2; assay type: cell-based; details: LA-N-2, neuroblastoma, MYCN-amplified, p53-mutant
Description: as §2
(§5) In addition to the many p53 wild-type cell lines in the cell line panel that were sensitive to USP7 inhibition, a subset of p53 mutant cell lines that were inhibited by our USP7 inhibitors were identified and are shown in Table 5.

NB-1 = test: Cell viability (CellTiter-Glo), NB-1; assay type: cell-based; details: Homo sapiens, NB1; NB-1, neuroblastoma, MYCN amplified, p53 wild-type
Description: as §2
(§6) USP7 has been reported to stabilize MYCN (also referred to as MYCN proto-oncogene, a gene that is a member of the MYC family which is over-expressed in a variety of tumors). Since MYCN amplification is an established driver mutation in neuroblastoma, the effect of USP7 inhibition on a panel of p53 wild-type, MYCN- or MYC-amplified neuroblastoma cell lines was tested. The USP7 inhibitors of Examples 31 and 124 reduced viability of all three MYCN-amplified and two MYC-amplified neuroblastoma cell lines tested as shown in Table 4. Idasanutlin was used as a positive control, and as expected these cell lines were also sensitive to this compound.

p21 = test: Western blot of p21 in H526 cells; assay type: cell-based; details: after 2, 8 or 24 hours of treatment
Description: (§7) For Western blotting, compound-treated cells were lysed in RIPA lysis buffer (ThermoScientific) containing Halt Protease and Phosphatase Inhibitor Cocktail (Life Technologies). Lysates were quantified using the BCA protein assay (Pierce) and equivalent protein was separated by SDS-PAGE (4-12%, ThermoScientific). Following electrophoresis, proteins were transferred to PVDF membranes. […] Caspase activation assays were performed on compound-treated cells using the Caspase-Glo 3/7 Assay Kit (Promega) according to the manufacturer's protocol, and luminescence was measured using a CLARIOstar plate reader (BMG LABTECH). […] Data were collected using FACSCanto (Becton Dickinson) and Attune (Thermo Fisher Scientific) flow cytometers and analyzed with FlowJo software (FlowJo LLC). […] Lysates were quantified using the BCA protein assay (Pierce) and equivalent protein was used in the PathScan Phospho-S6 Ribosomal Protein (Ser235/236) Sandwich ELISA Kit (Cell Signaling) according to the manufacturer's protocol. Absorbance was measured using the Spectramax 300 plate reader (Molecular Devices).
(§8) The effect of pharmacological inhibition of USP7 on the viability of the p53 mutant small cell lung cancer cell line, H526 was further evaluated. […]

MYCN = test: Western blot of MYCN in H526 cells; assay type: cell-based; details: after 2, 8 or 24 hours of treatment
Description: as §7, §8

SK-N-DZ = test: Cell viability (CellTiter-Glo), SK-N-DZ; assay type: cell-based; details: Homo sapiens, neuroblastoma, MYCN-amplified, p53-mutant
Description: as §2, §5

USP7 = USP7 (Homo sapiens, UniProt Q93009); test: USP7 inhibitory potency (IC50); assay type: biochemical
Description: Activity for compounds described herein is provided in Table 2, wherein potency levels are provided as follows: (Potency: USP7 IC50: A<0.01 μM; B=0.01-0.1 μM; C=>0.1 μM.

MM.1S = test: Cell viability (CellTiter-Glo), MM.1S; assay type: cell-based; details: Homo sapiens, MM1.S, p53 wild-type
Description: as §2, §3

MOLM13 = test: Cell viability (CellTiter-Glo), MOLM13; assay type: cell-based; details: Homo sapiens, MOLM-13; MOLM13, AML, p53 wild-type
Description: as §2, §3

CHP-134 = test: Cell viability (CellTiter-Glo), CHP-134; assay type: cell-based; details: Homo sapiens; CHP-134, neuroblastoma, MYCN amplified, p53 wild-type
Description: as §2, §6

H526 = test: Cell viability (CellTiter-Glo), H526; assay type: cell-based; details: Homo sapiens, NCI-H526
Description: as §2, §5, §4

OCI-AML5 = test: Cell viability (CellTiter-Glo), OCI-AML5; assay type: cell-based; details: Homo sapiens, OCI-AML-5, p53 wild-type
Description: as §2, §3

SH-SY5Y = test: Cell viability (CellTiter-Glo), SH-SY5Y; assay type: cell-based; details: Homo sapiens, neuroblastoma, MYC amplified, p53 wild-type
Description: as §2, §6

[7] = H526 xenograft, athymic nude mice, twice-daily oral 50 mg/kg (FIG. 2) or daily oral 100 mg/kg (data not shown)

Chain of USP7 (Q93009 whole entry): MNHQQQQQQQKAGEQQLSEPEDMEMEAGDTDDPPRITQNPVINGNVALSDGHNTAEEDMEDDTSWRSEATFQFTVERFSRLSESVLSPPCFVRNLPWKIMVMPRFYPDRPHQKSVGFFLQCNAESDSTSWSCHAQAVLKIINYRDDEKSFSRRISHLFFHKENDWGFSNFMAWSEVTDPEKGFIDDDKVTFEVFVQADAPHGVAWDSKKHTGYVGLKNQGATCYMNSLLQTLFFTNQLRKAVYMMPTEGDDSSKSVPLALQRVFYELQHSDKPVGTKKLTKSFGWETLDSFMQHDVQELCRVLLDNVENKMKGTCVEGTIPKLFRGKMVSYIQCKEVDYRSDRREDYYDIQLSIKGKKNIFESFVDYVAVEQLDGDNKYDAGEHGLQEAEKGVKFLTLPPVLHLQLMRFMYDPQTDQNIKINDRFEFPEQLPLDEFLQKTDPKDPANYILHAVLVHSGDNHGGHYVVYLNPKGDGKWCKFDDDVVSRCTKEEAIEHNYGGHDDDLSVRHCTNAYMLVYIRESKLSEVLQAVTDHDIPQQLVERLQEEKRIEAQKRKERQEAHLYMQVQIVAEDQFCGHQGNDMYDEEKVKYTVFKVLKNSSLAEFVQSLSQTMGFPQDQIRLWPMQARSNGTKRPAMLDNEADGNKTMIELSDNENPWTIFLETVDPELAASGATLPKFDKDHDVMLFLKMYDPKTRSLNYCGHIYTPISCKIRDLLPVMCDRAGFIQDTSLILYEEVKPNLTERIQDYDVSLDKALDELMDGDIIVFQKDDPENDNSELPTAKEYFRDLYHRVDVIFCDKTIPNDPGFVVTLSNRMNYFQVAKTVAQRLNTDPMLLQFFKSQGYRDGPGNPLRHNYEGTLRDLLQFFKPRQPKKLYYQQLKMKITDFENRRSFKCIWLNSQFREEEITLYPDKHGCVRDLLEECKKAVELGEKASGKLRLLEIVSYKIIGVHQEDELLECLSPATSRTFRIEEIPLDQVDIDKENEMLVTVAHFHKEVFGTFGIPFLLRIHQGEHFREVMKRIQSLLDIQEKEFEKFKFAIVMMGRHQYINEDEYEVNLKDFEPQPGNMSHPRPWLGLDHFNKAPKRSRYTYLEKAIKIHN

Cc1cc(Cl)cc(-c2ccnc3cc(CN4C(=O)C5C(C4=O)C5(C)C)sc23)c1C[C@@H]1CNCCO1 (stereo partly drawn) [3-((7-(5-chloro-3-methyl-2-(((R)-morpholin-2-yl)methyl)phenyl)thieno[3,2-b]pyridin-2-yl)methyl)-6,6-dimethyl-3-azabicyclo[3.1.0]hexane-2,4-dione]
levels of phosphorylated S6 (Ser235/236) [1]: decreased levels of phosphorylated S6 (Ser235/236)
transcriptomic changes (RNASeq) (H526 cells [2]): upregulation of a large number of genes normally silenced by the polycomb repressive complex 2 (PRC2)
apoptosis (caspase-3/7 induction, sub-G1 population) (H526 cells [3]): induced apoptosis in H526 cells in a dose-dependent manner
synergy with carboplatin (H526 cells [4]; combination with carboplatin): modest synergy
synergy with doxorubicin (H526 cells [4]; combination with doxorubicin): modest synergy
synergy with olaparib (H526 cells [4]; combination with the PARP inhibitor olaparib): modest synergy
synergy when dosed with itself (H526 cells [4]; compound dosed with itself (control)): no synergy was observed
synergy with pictilisib (H526 cells [4]; p53 mutant, combination with the PI3K inhibitor pictilisib): strongly synergized
synergy with taselisib (H526 cells [4]; p53 mutant, combination with the PI3K inhibitor taselisib): strongly synergized
synergy with AZD 1208 (H526 cells [4]; p53 mutant, combination with the PIM kinase inhibitor AZD 1208): strongly synergized
levels of phosphorylated histone H2AX (γ-H2AX) ([5]; USP7 inhibitor alone): did not increase levels of phosphorylated histone H2AX (γ-H2AX)
levels of γ-H2AX ([5]; combination of the USP7 inhibitor and carboplatin): increased γ-H2AX

Cc1cc(Cl)cc(-c2ccnc3cc(CN4C(=O)C5C(C4=O)C5(C)C)sc23)c1C[C@@H]1CNCCO1 (stereo partly drawn) [Example 124, 3-((7-(5-chloro-3-methyl-2-(((R)-morpholin-2-yl)methyl)phenyl)thieno[3,2-b]pyridin-2-yl)methyl)-6,6-dimethyl-3-azabicyclo[3.1.0]hexane-2,4-dione]
tolerability [6]: well tolerated
CC50 (M07e): 0.2 µM
survival (H526 xenograft; [7]): prolonged survival
tumor growth (H526 xenograft; [7]): inhibited tumor growth
tolerability (H526 xenograft; tumor-bearing mice of the H526 study, oral 50 mg/kg twice daily or 100 mg/kg daily): well tolerated
CC50 (LA-N-2): 0.2 µM
CC50 (NB-1): 0.5 µM
p21 level (p21): did not induce any change in p21 level
MYCN protein levels (MYCN): did not reduce MYCN protein levels
CC50 (SK-N-DZ): 0.2 µM
IC50 (USP7): < 0.01 µM
CC50 (MM.1S): 0.1 µM
CC50 (MOLM13): 0.4 µM
CC50 (CHP-134): 0.6 µM
CC50 (H526; H526, lung, small cell, p53-mutant, read-out: CC50): 0.5 µM
CC50 (H526; H526, p53 mutant small cell lung cancer, CellTiter-Glo assay, read-out: CC50 (viability of H526 in vitro)): 0.5 µM
CC50 (OCI-AML5): 0.2 µM
CC50 (SH-SY5Y): 1.9 µM
